Assay: Test B: In-vitro competitive aortic tissue binding assay
Settings: 100 μM compound pre-incubated overnight at 37° C. with rat aortic homogenate, competition with 100 μM [14C] WO2010/128324 Ex. 3
Experimental: To assist the design of DPP1 inhibitors with a decreased risk of binding to elastin rich tissues, such as the aorta, the in-vitro competitive aortic binding assay disclosed below (Test B) was developed to facilitate the selection process.
Test B: In-vitro competitive aortic tissue binding assay Aortic homogenate was prepared from the thoracic aortae of Han Wistar rats. Freshly isolated thoracic aortae were frozen, and later thawed and stripped of non-elastic material. […] Homogenate concentration was adjusted to 30 mg/mL in Puck's saline, and aliquots were stored at −80° C. until use. Positive and negative control compounds and test compounds were made up to 100 mM in DMSO, and added to 1 mL aliquots of aortic homogenate in Puck's saline for a final concentration of 100 μM. Homogenate samples were pre-incubated with test compounds at 37° C., rotating, overnight. [^14C]4-Amino-N-[(1S)-1-cyano-2-(4′-cyanobiphenyl-4-yl)ethyl]tetrahydro-2H-pyran-4-carboxamide was then added to all samples to a final concentration of 100 μM, and samples were incubated at 37° C., rotating, for a further 2 h. Protein was precipitated from each sample by the addition of 10 mL acetone, pre-chilled to −20° C. Samples were left overnight at −20° C. to allow complete precipitation. Precipitate was pelleted by centrifugation at 4,500×g at 4° C. for 20 min, an aliquot of supernatant was removed for analysis, and the remainder of the supernatant discarded. Precipitate was washed by resuspension in 10 mL 80% methanol in distilled water, and re-pelleted by centrifugation at 4,500×g at 4° C. for 20 min. […] After final wash, precipitate was air-dried, and dissolved overnight in 1 mL NCSII Tissue Solubiliser. 1 mL aliquots of supernatants were added to 5 mL Ultima Gold scintillation fluid (Perkin Elmer, MA, U.S.A.), and 1 mL solubilised pellets were added to 5 mL Hionic-Fluor scintillation fluid (Perkin Elmer, MA, U.S.A.). Radioactivity of samples was determined on a Beckman LS6500 multipurpose scintillation counter (Beckman Coulter, IN, U.S.A.). […] Duplicate samples were tested for each compound on each experimental occasion, and at least two experiments were run for each test compound. […] 1-way ANOVA and Bonferroni's multiple comparison tests were performed to calculate significance of differences from vehicle control.

Aortic Tissue Binding	Compound
Medium binder	Cn1c(=O)oc2ccc(-c3ccc(C[C@@H](C#N)NC(=O)[C@@H]4CCCCN4)cc3)cc21 [WO2009/074829 (Example 96)]
Strong binder	Cn1c(=O)oc2ccc(-c3ccc(C[C@@H](C#N)NC(=O)C4(N)CCOCC4)cc3)cc21 [WO2010/128324 (Example 17)]
No binder	Cn1c(=O)oc2ccc(-c3ccc(C[C@@H](C#N)NC(=O)[C@@H]4CNCCCO4)cc3)cc21 [Example 2, (2S)-N-{(1S)-1-Cyano-2-[4-(3-methyl-2-oxo-2,3-dihydro-1,3-benzoxazol-5-yl)phenyl]ethyl}-1,4-oxazepane-2-carboxamide]
Binder	N#Cc1ccc(-c2ccc(C[C@@H](C#N)NC(=O)[C@@H]3CCCCN3)cc2)cc1 [WO2009/074829 (Example 24)]
Strong binder (reference)	N#Cc1ccc(-c2ccc(C[C@@H](C#N)NC(=O)C3(N)CCOCC3)cc2)cc1 [WO2010/128324 (Ex. 3), 4-amino-N-[(1S)-1-cyano-2-(4′-cyanobiphenyl-4-yl)ethyl]tetrahydro-2H-pyran-4-carboxamide]
